Measured values taken from ChEMBL document CHEMBL3044816, “Mode of Action of Herbicidal N-Benzyl-4-chloro-N-isobutyl-2-pentenamides” (J Pestic Sci, 2002).
Calls of active or inactive are those of the source. No cut-off for these calls is given here.

Columns and labels:
[1] = test system: Echinochloa crus-galli; assay: Herbicidal activity against Echinochloa crus-galli (barnyard grass) assessed as damage of seedlings; format: functional
[2] = test system: Scenedesmus acutus; assay: Phytotoxic activity against Scenedesmus acutus assessed as phytoene accumulation; format: functional, organism-based
[3] = test system: Scenedesmus acutus; assay: Phytotoxic activity against Scenedesmus acutus assessed as zeta-carotene accumulation; format: functional, organism-based

Compound | ED90 [1] [gAi/ha] | also measured
CC(Cl)/C=C/C(=O)N(Cc1ccc(C(F)(F)F)cc1)CC(C)C (stereo unspecified) | 31 | –
CC(Cl)/C=C/C(=O)N(Cc1ccc(C#N)cc1)CC(C)C (stereo unspecified) | 16 | –
CC(Cl)/C=C/C(=O)N(Cc1ccc(S(C)(=O)=O)cc1)CC(C)C (stereo unspecified) | >1000 | –
CNc1cnn(-c2cccc(C(F)(F)F)c2)c(=O)c1Cl | – | Activity [2]: Active
CC(Cl)/C=C/C(=O)N(Cc1ccc(Cl)cc1)CC(C)C (stereo unspecified) | 16 | –
COc1ccc(C(=O)c2cccc(C)c2)cc1C | – | Activity [3]: Active
